Data: patent US5096907A, “Antibiotic LL-E19085” (American Cyanamid Company, priority 1991, dated 1992)
In brackets after ≈: the same amount, converted by molar mass. Like-named read-outs stand apart in the source and are kept apart here.

Assays:
Assay in all cases: In vitro antibacterial activity, agar dilution
Format in all cases: cell-based
[1] = system: Streptococcus a-hemolyticus; settings: strain AMCH 88-84, Mueller-Hinton agar, read-out: Minimal Inhibitory Concentration
Experimental: (§1) The in vitro antibacterial effects of antibiotics LL-E19085α, LL-E19085β, LL-E19085γ, LL-E19085.zeta. and LL-E19085.eta. were determined by standard agar dilution methods against clinical isolates obtained from medical centers representing various geographical areas in the United States. The inoculum of each culture was approximately 1 to 5×10^4 colony forming units applied with a Steers multiple inocula replicator to plates containing the antibiotic in Mueller-Hinton agar. The agar was supplemented with about 5% sheep blood where required for the growth of the organism.

[2] = system: Streptococcus faecalis; settings: Enterococcus faecalis, Mueller-Hinton agar, read-out: Minimal Inhibitory Concentration
Experimental: as §1

[3] = system: Klebsiella pneumoniae; settings: strain NEMC 87-271, Mueller-Hinton agar, read-out: Minimal Inhibitory Concentration
Experimental: as §1

[4] = system: Streptococcus pneumoniae; settings: read-out: Minimal Inhibitory Concentration
Experimental: as §1

[5] = system: Staphylococcus aureus; settings: read-out: Minimal Inhibitory Concentration
Experimental: as §1

[6] = system: Staphylococcus hemolyticus; settings: read-out: Minimal Inhibitory Concentration
Experimental: as §1

[7] = system: Enterococcus; settings: strain CHBM 88-60, Mueller-Hinton agar, read-out: Minimal Inhibitory Concentration
Experimental: as §1

[8] = system: Streptococcus b-hemolyticus; settings: strain AMCH 88-86, Mueller-Hinton agar, read-out: Minimal Inhibitory Concentration
Experimental: as §1

[9] = system: Escherichia coli
Experimental: as §1

[10] = system: Bacteroides cereus; settings: read-out: Minimal Inhibitory Concentration
Experimental: as §1

[11] = system: Enterococcus Grp D; settings: strain WRVA 88-33, Mueller-Hinton agar, read-out: Minimal Inhibitory Concentration
Experimental: as §1

[12] = strain CHBB 88-75, Mueller-Hinton agar
[13] = strain CHBM 88-70, Mueller-Hinton agar
[14] = strain TEX 85-2, Mueller-Hinton agar
[15] = ATCC25923, strain ATCC 25923, Mueller-Hinton agar
[16] = ATCC29213, strain ATCC 29213, Mueller-Hinton agar
[17] = strain CMC 83-131, Mueller-Hinton agar
[18] = strain IVES 542, Mueller-Hinton agar
[19] = strain K82-26, Mueller-Hinton agar
[20] = strain NEMC 87-69, Mueller-Hinton agar
[21] = strain ROSE (MP), Mueller-Hinton agar
[22] = strain VGH 84-47, Mueller-Hinton agar
[23] = strain AVAH 88-1, Mueller-Hinton agar
[24] = strain AVAH 88-3, Mueller-Hinton agar
[25] = ATCC25922, strain ATCC 25922, Mueller-Hinton agar, read-out: Minimal Inhibitory Concentration
[26] = ATCC35218, strain ATCC 35218, Mueller-Hinton agar, read-out: Minimal Inhibitory Concentration
[27] = read-out: Minimal Inhibitory Concentration, strain D21, Mueller-Hinton agar
[28] = strain D22, Mueller-Hinton agar, read-out: Minimal Inhibitory Concentration

| Compound | MIC [1] | MIC ([2]; strain ARUM 87-41) | MIC ([2]; strain CMC 83-120) | MIC ([2]; strain VCH 84-69) | MIC ([2]; strain VCI 85-30) | MIC [3] | MIC [4, 12] | MIC [4, 13] | MIC [4, 14] | MIC [5, 15] | MIC [5, 16] | MIC [5, 17] | MIC [5, 18] | MIC [5, 19] | MIC [5, 20] | MIC [5, 21] | MIC [5, 22] | MIC [6, 23] | MIC [6, 24] | MIC [7] | also measured |
| --- | --- | --- | --- | --- | --- | --- | --- | --- | --- | --- | --- | --- | --- | --- | --- | --- | --- | --- | --- | --- | --- |
| COc1cc2oc3c(c(=O)c2cc1OC)C(=O)c1c(ccc2cc4c(c(O)c12)C(=O)N1C(C)(C4)OC(=O)C1(C)COC(=O)C(C)C)C3=O (stereo not drawn) [LL-E19085β] | 0.5 mg/L (≈ 0.763 µM) | 2 mg/L (≈ 3.05 µM) | 2 mg/L (≈ 3.05 µM) | 2 mg/L (≈ 3.05 µM) | 2 mg/L (≈ 3.05 µM) | ≥ 64 mg/L | 0.12 mg/L (≈ 0.183 µM) | 0.25 mg/L (≈ 0.381 µM) | 0.12 mg/L (≈ 0.183 µM) | 0.5 mg/L (≈ 0.763 µM) | 2 mg/L (≈ 3.05 µM) | 4 mg/L (≈ 6.1 µM) | 4 mg/L (≈ 6.1 µM) | 2 mg/L (≈ 3.05 µM) | 4 mg/L (≈ 6.1 µM) | 2 mg/L (≈ 3.05 µM) | 4 mg/L (≈ 6.1 µM) | 2 mg/L (≈ 3.05 µM) | 4 mg/L (≈ 6.1 µM) | 2 mg/L (≈ 3.05 µM) | MIC [8]: 2 mg/L (≈ 3.05 µM); MIC [9, 25]: > 64 mg/L; MIC [9, 26]: > 64 mg/L; MIC [9, 27]: ≥ 64 mg/L; MIC [9, 28]: 8 mg/L (≈ 12.2 µM); MIC [10]: 2 mg/L (≈ 3.05 µM); MIC [11]: 2 mg/L (≈ 3.05 µM) |
| COc1cc2oc3c(c(=O)c2cc1OC)C(=O)c1c(ccc2cc4c(c(O)c12)C(=O)N1C(C)(C4)OC(=O)C1(C)CO)C3=O (stereo not drawn) [LL-E19085.eta.] | ≤ 0.015 mg/L | ≤ 0.015 mg/L | ≤ 0.015 mg/L | ≤ 0.015 mg/L | ≤ 0.015 mg/L | ≥ 32 mg/L | ≤ 0.015 mg/L | ≤ 0.015 mg/L | ≤ 0.015 mg/L | ≤ 0.015 mg/L | ≤ 0.015 mg/L | 0.12 mg/L (≈ 0.205 µM) | ≤ 0.015 mg/L | ≤ 0.015 mg/L | ≤ 0.015 mg/L | ≤ 0.015 mg/L | ≤ 0.015 mg/L | ≤ 0.015 mg/L | ≤ 0.015 mg/L | ≤ 0.015 mg/L | MIC [8]: ≤ 0.015 mg/L; MIC [9, 25]: > 32 mg/L; MIC [9, 26]: > 32 mg/L; MIC [9, 27]: ≥ 32 mg/L; MIC [9, 28]: 2 mg/L (≈ 3.42 µM); MIC [10]: ≤ 0.015 mg/L; MIC [11]: ≤ 0.015 mg/L |
